Laboratory results taken from patent US20090163571A1, “PHARMACEUTICAL FOR USE IN THE TREATMENT OF URETEROLITHIASIS” (KISSEI PHARMACEUTICAL CO., LTD, priority 2005, published 2009).
Structures can show the parent of a compound that is named as a salt.

Experiments:
[1] = tested on: isolated hamster ureter; assay: Inhibition of phenylephrine-induced contraction of isolated hamster ureter (organ bath); conditions: for pA2: against phenylephrine concentration-response curve
[2] = anesthetized dogs; compared with the compound of general formula (I); cited from earlier work

| SMILES | pA2 [1] | inhibitory effect against phenylephrine induced ureteral contraction (shift of concentration-response curve) ([1]; 3×10^−10, 1×10^−9, 3×10^−9 mol/L, about 30 min pretreatment) | decrease of blood pressure [2] |
| --- | --- | --- | --- |
| COc1ccccc1N1CCN(CCN2C(=O)CC3(CCCC3)CC2=O)CC1 [BMY-7378] | 5.75 | – | – |
| C[C@H](Cc1cc2c(c(C(N)=O)c1)N(CCCO)CC2)NCCOc1ccccc1OCC(F)(F)F [Compound 1, (−)-1-(3-hydroxypropyl)-5-((2R)-2-{[2-((2-[(2,2,2-trifluoroethyl)oxy]phenyl)oxy)ethyl]amino}propyl)-2,3-dihydro-1H-indole-7-carboxamide] | 9.44 | caused concentration-dependently a parallel rightward shift of the concentration-response curve for phenylephrine | – |
| COc1ccccc1N1CCN(CC(O)COc2cccc3ccccc23)CC1 (stereo not drawn) [naftopidil] | 6.54 | – | – |
| CCOc1ccccc1OCCN[C@H](C)Cc1ccc(OC)c(S(N)(=O)=O)c1 [tamsulosin hydrochloride] | 9.85 | – | decreases blood pressure more strongly than the compound represented by the above general formula (I) |
